Data: patent US10561650B2, “Method for treating a protozoal infection” (priority 2013, dated 2020)

Tested on: L. donovani promastigotes
Assay: Cultured L. donovani promastigotes exposed to drugs alone or in two-drug combinations
Format: cell-based
Details: typical serum concentrations (e.g. 5 ug/ml); DMEM culture medium; after 144 hours in culture

For `Cc1ncc([N+](=O)[O-])n1CCO` [metronidazole], the “reduction of promastigotes compared to control” value was roughly 50%.
For `CCC(C)n1ncn(-c2ccc(N3CCN(c4ccc(OCC5COC(Cn6cncn6)(c6ccc(Cl)cc6Cl)O5)cc4)CC3)cc2)c1=O` (centres unmarked) [itraconazole], the “reduction of promastigotes compared to control” value was roughly 50%.
